Results from patent US8772322B2, “Synergistic preservative compositions” (ISP Investments Inc., priority 2010, dated 2014).

Assays:
Type in all cases: cell-based
[1] = tested on: Staphylococcus aureus (ATCC 6538); assay: MIC / growth test of aqueous biocide mixtures in TSB, 24 hr at 32° C., with synergy index (Kull); for growth: key: growth of the microorganism took place (symbol '+'); or not (symbol '−')
Protocol: (§1) Synergy is determined from combination studies of the different actives according to the method of calculation put forward by F. C. Kull et al, Applied Microbiology, 9:538 (1961): Synergy Index (SI)=Qa/QA+Qb/QB
(§2) Where • Qa=concentration of component A in the biocide composition showing the desired effect (e.g. no growth of microorganisms) • QA=concentration of component A as single component showing the desired effect • Qb=concentration of component B in the biocide composition showing the desired effect and • QB=concentration of component B as single component showing the desired effect
(§3) For a system consisting of three active components the synergy index is calculated by the formula: Synergy Index (SI)=Qa/QA+Qb/QB+Qc/QC
(§4) Synergy in a composition then exists when the synergy index is less than 1.
(§5) In this example synergy is shown against the microorganism Staphylococcus aureus (ATCC 6538). For this purpose MIC values were determined for each individual active as well as for different combinations of the 3 actives. MIC (Minimum Inhibitory Concentration) defines the lowest concentration level of a substance to inhibit the growth of a given organism.
Subsequently the activity of these mixtures were tested against Staphylococcus aureus.
(§6) The cell density of S. aureus was 10*5 cells/ml. The incubation time was 24 hr at 32° C.
(§7) TSB (Tryptic Soy […]) was used as nutrient medium.
In this way the table represents the MIC value for each tested combination.

[2] = tested on: Pseudomonas aeruginosa (ATCC 9027); assay: MIC / growth test of aqueous biocide mixtures, same protocol as Example 1, with synergy index; for growth: key: growth of the microorganism took place (symbol '+'); or not (symbol '−')
Protocol: as §1, §2, §3, §4, §5, §6, §7
In this example synergy is shown against the microorganism Pseudomonas aeruginosa (ATCC 9027).
(§8) The test protocol is the same as described under Example 1.
In Table 4 the synergy index has been calculated.

[3] = tested on: Escherichia coli (ATCC 8793); assay: as above; for growth: key: growth of the microorganism took place (symbol '+'); or not (symbol '−')
Protocol: as §1, §2, §3, §4, §5, §6, §7
In this example synergy is shown against the microorganism Escherichia coli (ATCC 8793).
as §8
In Table 6 the synergy index has been calculated.

[4] = single active, incubation time 24 hours
[5] = in combination with IPBC 3.9 + CMIT/MIT 0.75 ppm
[6] = in combination with IPBC 7.8 + CMIT/MIT 0.75 ppm
[7] = in combination with IPBC 15.6 + CMIT/MIT 0.75 ppm
[8] = in combination with IPBC 31.2 + CMIT/MIT 0.75 ppm

`O=c1[nH]sc2ccccc12` [BIT, 1,2-Benzisothiazolin-3-one] was tested, and the growth ([1]; BIT 0.01 ppm, IPBC 0, without CMIT/MIT) was “+”, the growth ([1]; BIT 0.03 ppm, IPBC 0, without CMIT/MIT) was “+” and the growth ([1]; BIT 0.05 ppm, IPBC 0, without CMIT/MIT) was “+”. The growth ([1]; BIT 0.1 ppm, IPBC 0, without CMIT/MIT) was “+”, the growth ([1]; BIT 0.19 ppm, IPBC 0, without CMIT/MIT) was “+” and the growth ([1]; BIT 0.39 ppm, IPBC 0, without CMIT/MIT) was “+”. The growth ([1]; BIT 0.78 ppm, IPBC 0, without CMIT/MIT) was “+”, the growth ([1]; BIT 1.56 ppm, IPBC 0, without CMIT/MIT) was “+” and the growth ([1]; BIT 3.12 ppm, IPBC 0, without CMIT/MIT) was “−”. The growth ([1]; BIT 3.12 ppm, single active) was “+”, the growth ([1]; BIT 6.25 ppm, IPBC 0, without CMIT/MIT) was “−” and the growth ([1]; BIT 6.25 ppm, single active) was “−”. For the same molecule, the growth ([1]; BIT 12.5 ppm, IPBC 0, without CMIT/MIT) was “−”, the growth ([1]; BIT 12.5 ppm, single active) was “−” and the growth ([1]; BIT 25 ppm, single active) was “−”. The growth ([1]; BIT 50 ppm, single active) was “−”, the growth ([1]; BIT 100 ppm, single active) was “−” and the “MIC BIT con. Qb” value ([1]; in combination with IPBC 0.49 + CMIT/MIT 1.5 ppm) was 0.78 ppm. The “MIC BIT con. Qb” value ([1]; in combination with IPBC 0.98 + CMIT/MIT 1.5 ppm) was 0.78 ppm, the “MIC BIT con. Qb” value ([1]; in combination with IPBC 1.95 + CMIT/MIT 0.37 ppm) was 1.56 ppm and the “MIC BIT con. Qb” value ([1]; in combination with IPBC 1.95 + CMIT/MIT 1.5 ppm) was 0.78 ppm. The “MIC BIT con. Qb” value ([1]; in combination with IPBC 3.9 + CMIT/MIT 0.37 ppm) was 1.56 ppm, the “MIC BIT con. Qb” value ([1]; in combination with IPBC 3.9 + CMIT/MIT 1.5 ppm) was 0.39 ppm and the “MIC BIT con. Qb” value ([1]; in combination with IPBC 3.9 ppm, CMIT/MIT 0) was 1.56 ppm. For the same molecule, the “MIC BIT con. Qb” value ([1]; in combination with IPBC 7.8 + CMIT/MIT 0.37 ppm) was 1.56 ppm, the “MIC BIT con. Qb” value ([1]; in combination with IPBC 7.8 + CMIT/MIT 1.5 ppm) was 0.01 ppm and the “MIC BIT con. Qb” value ([1]; in combination with IPBC 7.8 ppm, CMIT/MIT 0) was 0.78 ppm. For the same molecule, the “MIC as single component (QA, QB, Qc)” value [1, 4] was 6.25 ppm, the growth ([2]; BIT 6.25 ppm, single active) was “+” and the growth ([2]; BIT 12.5 ppm, single active) was “+”. The growth ([2]; BIT 25 ppm, single active) was “+”, the growth ([2]; BIT 50 ppm, single active) was “−” and the growth ([2]; BIT 100 ppm, single active) was “−”. The growth ([2]; BIT 200 ppm, single active) was “−”, the “MIC BIT con. Qb” value [2, 5] was 12.5 ppm and the “MIC BIT con. Qb” value [2, 6] was 12.5 ppm. For the same molecule, the “MIC BIT con. Qb” value [2, 7] was 12.5 ppm, the “MIC BIT con. Qb” value [2, 8] was 12.5 ppm and the “MIC BIT con. Qb” value ([2]; in combination with IPBC 62.5 + CMIT/MIT 0.75 ppm) was 6.25 ppm. For the same molecule, the “MIC BIT con. Qb” value ([2]; in combination with IPBC 125 + CMIT/MIT 0.75 ppm) was 6.25 ppm, the “MIC BIT con. Qb” value ([2]; in combination with IPBC 125 ppm, CMIT/MIT 0) was 25 ppm and the “MIC as single component (QA, QB, QC)” value [2, 4] was 50 ppm. For the same molecule, the growth ([3]; BIT 1.56 ppm, single active) was “+”, the growth ([3]; BIT 3.12 ppm, single active) was “+” and the growth ([3]; BIT 6.25 ppm, single active) was “−”. The growth ([3]; BIT 12.5 ppm, single active) was “−”, the growth ([3]; BIT 25 ppm, single active) was “−” and the growth ([3]; BIT 50 ppm, single active) was “−”. For the same molecule, the growth ([3]; BIT 100 ppm, single active) was “−”, the “MIC BIT con. Qb” value ([3]; in combination with IPBC 0.98 + CMIT/MIT 0.75 ppm) was 3.12 ppm and the “MIC BIT con. Qb” value ([3]; in combination with IPBC 1.95 + CMIT/MIT 0.75 ppm) was 3.12 ppm. For the same molecule, the “MIC BIT con. Qb” value ([3]; in combination with IPBC 3.9 + CMIT/MIT 0.19 ppm) was 3.12 ppm, the “MIC BIT con. Qb” value [3, 5] was 3.12 ppm and the “MIC BIT con. Qb” value ([3]; in combination with IPBC 7.8 + CMIT/MIT 0.19 ppm) was 3.12 ppm. For the same molecule, the “MIC BIT con. Qb” value [3, 6] was 3.12 ppm, the “MIC BIT con. Qb” value ([3]; in combination with IPBC 15.6 + CMIT/MIT 0.19 ppm) was 3.12 ppm and the “MIC BIT con. Qb” value [3, 7] was 3.12 ppm. For the same molecule, the “MIC BIT con. Qb” value ([3]; in combination with IPBC 31.2 + CMIT/MIT 0.19 ppm) was 3.12 ppm, the “MIC BIT con. Qb” value [3, 8] was 0.78 ppm and the “MIC BIT con. Qb” value ([3]; in combination with IPBC 62.5 + CMIT/MIT 0.19 ppm) was 1.56 ppm. For the same molecule, the “MIC BIT con. Qb” value ([3]; in combination with IPBC 62.5 ppm, CMIT/MIT 0) was 3.12 ppm and the “MIC as single component (QA, QB, QC)” value [3, 4] was 6.25 ppm.
